Legend:
neutrophils in BAL = assay: percentage of neutrophils among BAL samples; assay type: in vivo, Balb/C mice; settings: hemorrhage/resuscitated mice treated; 11±2% in untreated; p<0.05
Description: This example illustrates a study of Lisofylline in a murine hemorrhage and resuscitation model. Male Balb/C mice, 8-12 weeks of age, were obtained from Harlan-Sprague Dawley (Indianapolis, Ind.). The animals were kept on a 12 hour light/dark cycle with free access to food and water. With this model, 30% of the calculated blood volume (approximately 0.55 ml for a 20 gram mouse) was withdrawn from a methoxyflurane anesthetized mouse by cardiac puncture over a 60-second period. The blood was collected into a heparinized syringe (5 units heparin), kept at 37° C. for one hour, then reinfused into the mouse through a retroorbital plexus injection. Using this method, one is able to resuscitate all hemorrhaged mice without complication. […]
Three days following hemorrhage and resuscitation or the initiation of treatment with Lisofylline therapy in normal treated animals, mice were anesthetized with methoxyflurane and sacrificed by exsanguination through cardiac puncture into a heparinized (5 U) syringe. […] As determined by cytology, there was less than 3% contamination of alveolar macrophages with lymphocytes, neutrophils, or other mononuclear cell populations when BAL specimens are collected in normal Balb/C mice, but approximately 11±2% of isolated cells are neutrophils in mice subjected 3 days previously to 30% blood volume hemorrhage with resuscitation one hour later. […]

human neutrophils = assay: neutrophil adherence to nylon fiber; assay type: cell-based
From the text: Human recombinant interleukin-1α (IL-1) was obtained from Hoffmann-LaRoche, Inc. (Nutley, N.J.), frozen inaliquots and thawed daily for use. Ketamine hydrochloride was obtained from Parke-Davis (Morris Plains, N.J.), xylazine from Haver (New York, N.J.), ^125I labeled bovine serum albumin (BSA) from ICN Radiochemicals (Irvine, Calif.), and heparin sodium from Elkins-Sinn, Inc. (Cherry Hill, N.J.). All other reagents were purchased from Sigma Chemical Co. (St. Louis, Mo.). Neutrophils were purified from human blood by well described methods. Venous blood was anticoagulated with heparin and the cellular elements were separated from platelet-rich plasma by centrifugation. Cell pellets were resuspended in platelet-poor plasma and diluted 1:4 with 6% dextran (Pharmacia Fine Chemicals, Piscataway, N.J.) in saline. Red cells were separated from leukocytes by sedimentation. Leukocyte-rich supernatants were then aspirated, underlain with Ficoll-Hypaque (Pharmacia Fine Chemicals), and centrifuged at 275×g to separate neutrophils and monocytes. Sedimented neutrophils were resuspended in Hank's balanced salt solution (HBSS). These preparations contained 94 to 96% neutrophils and 4 to 6% monocytes. All values were compared by analysis of variance and corrected by post hoc Student t tests for differences between groups. A p value of <0.05 was considered significant.
Neutrophil adherence was measured using the nylon fiber technique. Briefly, 50 mg of scrubbed nylon fiber (3-XXX), 3.81 cm type 200 (Travenol Laboratories, Deerfield, Ill.), was packed into the distal 10 mm of the barrels of tuberculin syringes. Ficoll-Hypaque-purified human neutrophils (1×10^7 cells) in plasma (total volume, 0.25 ml) with and without Lisofylline were then placed in the top of the nylon fiber column which was maintained at 37° C. After 90 sec, the plunger was inserted and the samples were eluted. Eluted neutrophils were counted by hemocytometer, and percentages of neutrophils adhering to the nylon fiber were calculated by the following formula: [formula]
Neutrophil chemotactic activity was determined by Boyden chamber assay and quantitated as the number of migrating PMN/5HPF using zymosan-activated serum (ZAS) as the chemoattractant (Repine et al., J. Reticuloendo. Soc. 24:217, 1978). Neutrophil adherence was assessed by quantitating the percentage of neutrophils adhering to nylon fibers following addition of phorbol myristate acetate (PMA 10-^6M, Sigma) (Rasp et al., J. Reticuloendo. Soc. 25:101, 1979). Neutrophil superoxide production was determined by quantitating superoxide dismutase inhibitable reduction of cytochrome c in response to PMA (10^−6 M) (Berger et al., J. Infectious Dis. 149:413, 1984).

## C[C@@H](O)CCCCn1c(=O)c2c(ncn2C)n(C)c1=O [Lisofylline, 1-R-(5-hydroxyhexyl)-3,7-dimethylxanthine]
Neutrophils in BAL
  percentage of neutrophils among BAL samples: 6±2%
Human neutrophils; Neutrophils + PMA + Lisofylline 0.7 μM
  Neutrophil Adherence: 35.8 ± 4.52 (4)δ %
Human neutrophils; Neutrophils + PMA + Lisofylline 7 μM
  Neutrophil Adherence: 38.8 ± 1.38 (4)δ %
Human neutrophils; Neutrophils + PMA + Lisofylline 70 μM
  Neutrophil Adherence: 25.6 ± 2.78 (5)δ %
Human neutrophils; Neutrophils + PMA + Lisofylline 700 μM
  Neutrophil Adherence: 26.6 ± 6.03 (5)δ %
Human neutrophils; PMA 10^-6 M, in vitro
  stimulated human neutrophil adherence: reduced

— patent US6638938B1, “Method for preventing tissue injury from hypoxia” (Cell Therapeutics, Inc., priority 1993, dated 2003)
